Results from PubChem BioAssay AID1259407 (Chemical Carcinogenesis Research Information System (CCRIS), 2018).
Active and inactive are the calls of the source. How the calls were made is not given here.

Test system: CCRIS mutagenicity, Ames/micronucleus/aberration tests
Experiment: CCRIS mutagenicity studies
[1] = Test System: AMES SALMONELLA TYPHIMURIUM, Strain/Indicator: TA98, Metabolic Activation: NONE, Method: STANDARD PLATE
[2] = Test System: AMES SALMONELLA TYPHIMURIUM, Strain/Indicator: TA100, Metabolic Activation: NONE, Method: PREINCUBATION
[3] = Test System: AMES SALMONELLA TYPHIMURIUM, Strain/Indicator: TA100, Metabolic Activation: NONE, Method: STANDARD PLATE
[4] = Test System: AMES SALMONELLA TYPHIMURIUM, Strain/Indicator: TA1535, Metabolic Activation: NONE, Method: PREINCUBATION
[5] = Test System: AMES SALMONELLA TYPHIMURIUM, Strain/Indicator: TA1535, Metabolic Activation: NONE, Method: STANDARD PLATE
[6] = Test System: AMES SALMONELLA TYPHIMURIUM, Strain/Indicator: TA1537, Metabolic Activation: NONE, Method: STANDARD PLATE
[7] = Test System: AMES SALMONELLA TYPHIMURIUM, Strain/Indicator: TA1538, Metabolic Activation: NONE, Method: STANDARD PLATE

Structure (SMILES): COc1ccccc1/C=C/C=O
- mutagenic call (Test System: AMES SALMONELLA TYPHIMURIUM, Strain/Indicator: TA98, Metabolic Activation: HAMSTER, LIVER, S-9, AROCLOR 1254 (2.5-20%), Method: PREINCUBATION): inactive; negative
- mutagenic call (Test System: AMES SALMONELLA TYPHIMURIUM, Strain/Indicator: TA98, Metabolic Activation: HAMSTER, LIVER, S-9, AROCLOR 1254, Method: STANDARD PLATE): inactive; negative
- mutagenic call [1]: inactive; negative
- mutagenic call (Test System: AMES SALMONELLA TYPHIMURIUM, Strain/Indicator: TA98, Metabolic Activation: RAT, LIVER, S-9, AROCLOR 1254, Method: STANDARD PLATE): inactive; negative
- mutagenic call (Test System: AMES SALMONELLA TYPHIMURIUM, Strain/Indicator: TA100, Metabolic Activation: HAMSTER, LIVER, S-9, AROCLOR 1254 (2.5-20%), Method: PREINCUBATION): inactive; negative
- mutagenic call (Test System: AMES SALMONELLA TYPHIMURIUM, Strain/Indicator: TA100, Metabolic Activation: HAMSTER, LIVER, S-9, AROCLOR 1254, Method: STANDARD PLATE): inactive; negative
- mutagenic call [2]: inactive; negative
- mutagenic call [3]: inactive; negative
- mutagenic call (Test System: AMES SALMONELLA TYPHIMURIUM, Strain/Indicator: TA100, Metabolic Activation: RAT, LIVER, S-9, AROCLOR 1254, Method: PREINCUBATION): inactive; negative
- mutagenic call (Test System: AMES SALMONELLA TYPHIMURIUM, Strain/Indicator: TA100, Metabolic Activation: RAT, LIVER, S-9, AROCLOR 1254, Method: STANDARD PLATE): inactive; negative
- mutagenic call (Test System: AMES SALMONELLA TYPHIMURIUM, Strain/Indicator: TA102, Metabolic Activation: HAMSTER, LIVER, S-9, AROCLOR 1254, Method: PREINCUBATION): inactive; negative
- mutagenic call (Test System: AMES SALMONELLA TYPHIMURIUM, Strain/Indicator: TA102, Metabolic Activation: RAT, LIVER, S-9, AROCLOR 1254, Method: PREINCUBATION): inactive; negative
- mutagenic call (Test System: AMES SALMONELLA TYPHIMURIUM, Strain/Indicator: TA1535, Metabolic Activation: HAMSTER, LIVER, S-9, AROCLOR 1254, Method: STANDARD PLATE): inactive; negative
- mutagenic call [4]: inactive; negative
- mutagenic call [5]: inactive; negative
- mutagenic call (Test System: AMES SALMONELLA TYPHIMURIUM, Strain/Indicator: TA1535, Metabolic Activation: RAT, LIVER, S-9, AROCLOR 1254, Method: STANDARD PLATE): inactive; negative
- mutagenic call (Test System: AMES SALMONELLA TYPHIMURIUM, Strain/Indicator: TA1537, Metabolic Activation: HAMSTER, LIVER, S-9, AROCLOR 1254, Method: STANDARD PLATE): inactive; negative
- mutagenic call [6]: inactive; negative
- mutagenic call (Test System: AMES SALMONELLA TYPHIMURIUM, Strain/Indicator: TA1537, Metabolic Activation: RAT, LIVER, S-9, AROCLOR 1254, Method: STANDARD PLATE): inactive; negative
- mutagenic call (Test System: AMES SALMONELLA TYPHIMURIUM, Strain/Indicator: TA1538, Metabolic Activation: HAMSTER, LIVER, S-9, AROCLOR 1254, Method: STANDARD PLATE): inactive; negative
- mutagenic call [7]: inactive; negative
- mutagenic call (Test System: AMES SALMONELLA TYPHIMURIUM, Strain/Indicator: TA1538, Metabolic Activation: RAT, LIVER, S-9, AROCLOR 1254, Method: STANDARD PLATE): inactive; negative
- mutagenic call (Test System: Mouse lymphoma, Strain/Indicator: L5178Y (tk+/tk-), Metabolic Activation: None, Method: Suspension/plate): active; inconclusive (previous evaluation positive)
- mutagenic call (Test System: Mouse lymphoma, Strain/Indicator: L5178Y (tk+/tk-), Metabolic Activation: Rat, Liver, S-9, Aroclor 1254, Method: Suspension/plate): active; inconclusive (previous evaluation positive)

Structure (SMILES): O[C@H]1C=Cc2ccc3nc4ccc5ccccc5c4cc3c2[C@@H]1O
- mutagenic call (Test System: AMES SALMONELLA TYPHIMURIUM, Strain/Indicator: TA98, Metabolic Activation: GUINEA PIG, LIVER, S-9, 3-METHYLCHOLANTHRENE, Method: STANDARD PLATE): active; positive
- mutagenic call (Test System: AMES SALMONELLA TYPHIMURIUM, Strain/Indicator: TA100, Metabolic Activation: GUINEA PIG, LIVER, S-9, 3-METHYLCHOLANTHRENE, Method: STANDARD PLATE): active; positive
- mutagenic call (Test System: CHINESE HAMSTER V-79, Strain/Indicator: V-79/6-THIOGUANINE, Metabolic Activation: GUINEA PIG, LIVER, S-9, 3-METHYLCHOLANTHRENE): active; positive

Structure (SMILES): O=S(=O)(c1ccc(O)cc1)c1ccc(O)cc1
- mutagenic call (Test System: AMES SALMONELLA TYPHIMURIUM, Strain/Indicator: TA98, Metabolic Activation: HAMSTER, LIVER, S-9, AROCLOR 1254 (10%), Method: STANDARD PLATE): inactive; negative
- mutagenic call (Test System: AMES SALMONELLA TYPHIMURIUM, Strain/Indicator: TA98, Metabolic Activation: NONE, Method: PREINCUBATION): inactive; negative
- mutagenic call [1]: inactive; negative
- mutagenic call (Test System: AMES SALMONELLA TYPHIMURIUM, Strain/Indicator: TA98, Metabolic Activation: RAT LIVER S-9, PHENOBARBITAL AND BETA-NAPHTHOFLAVONE, Method: PREINCUBATION): inactive; negative
- mutagenic call (Test System: AMES SALMONELLA TYPHIMURIUM, Strain/Indicator: TA98, Metabolic Activation: RAT, LIVER, S-9, AROCLOR 1254 (10%), Method: STANDARD PLATE): inactive; negative
- mutagenic call (Test System: AMES SALMONELLA TYPHIMURIUM, Strain/Indicator: TA100, Metabolic Activation: HAMSTER, LIVER, S-9, AROCLOR 1254 (10%), Method: STANDARD PLATE): inactive; negative
- mutagenic call [2]: inactive; negative
- mutagenic call [3]: inactive; negative
- mutagenic call (Test System: AMES SALMONELLA TYPHIMURIUM, Strain/Indicator: TA100, Metabolic Activation: RAT LIVER S-9, PHENOBARBITAL AND BETA-NAPHTHOFLAVONE, Method: PREINCUBATION): inactive; negative
- mutagenic call (Test System: AMES SALMONELLA TYPHIMURIUM, Strain/Indicator: TA100, Metabolic Activation: RAT, LIVER, S-9, AROCLOR 1254 (10%), Method: STANDARD PLATE): inactive; negative
- mutagenic call (Test System: AMES SALMONELLA TYPHIMURIUM, Strain/Indicator: TA1535, Metabolic Activation: HAMSTER, LIVER, S-9, AROCLOR 1254 (10%), Method: STANDARD PLATE): inactive; negative
- mutagenic call [4]: inactive; negative
- mutagenic call [5]: inactive; negative
- mutagenic call (Test System: AMES SALMONELLA TYPHIMURIUM, Strain/Indicator: TA1535, Metabolic Activation: RAT LIVER S-9, PHENOBARBITAL AND BETA-NAPHTHOFLAVONE, Method: PREINCUBATION): inactive; negative
- mutagenic call (Test System: AMES SALMONELLA TYPHIMURIUM, Strain/Indicator: TA1535, Metabolic Activation: RAT, LIVER, S-9, AROCLOR 1254 (10%), Method: STANDARD PLATE): inactive; negative
- mutagenic call (Test System: AMES SALMONELLA TYPHIMURIUM, Strain/Indicator: TA1537, Metabolic Activation: HAMSTER, LIVER, S-9, AROCLOR 1254 (10%), Method: STANDARD PLATE): inactive; negative
- mutagenic call (Test System: AMES SALMONELLA TYPHIMURIUM, Strain/Indicator: TA1537, Metabolic Activation: NONE, Method: PREINCUBATION): inactive; negative
- mutagenic call [6]: inactive; negative
- mutagenic call (Test System: AMES SALMONELLA TYPHIMURIUM, Strain/Indicator: TA1537, Metabolic Activation: RAT LIVER S-9, PHENOBARBITAL AND BETA-NAPHTHOFLAVONE, Method: PREINCUBATION): inactive; negative
- mutagenic call (Test System: AMES SALMONELLA TYPHIMURIUM, Strain/Indicator: TA1537, Metabolic Activation: RAT, LIVER, S-9, AROCLOR 1254 (10%), Method: STANDARD PLATE): inactive; negative
- mutagenic call (Test System: AMES SALMONELLA TYPHIMURIUM, Strain/Indicator: TA1538, Metabolic Activation: HAMSTER, LIVER, S-9, AROCLOR 1254 (10%), Method: STANDARD PLATE): inactive; negative
- mutagenic call [7]: inactive; negative
- mutagenic call (Test System: AMES SALMONELLA TYPHIMURIUM, Strain/Indicator: TA1538, Metabolic Activation: RAT, LIVER, S-9, AROCLOR 1254 (10%), Method: STANDARD PLATE): inactive; negative
- mutagenic call (Test System: E. COLI, Strain/Indicator: WP2UVRA, Metabolic Activation: NONE, Method: PREINCUBATION): inactive; negative
- mutagenic call (Test System: E. COLI, Strain/Indicator: WP2UVRA, Metabolic Activation: RAT LIVER S-9, PHENOBARBITAL AND BETA-NAPHTHOFLAVONE, Method: PREINCUBATION): inactive; negative
- mutagenic call (Test System: MOUSE LYMPHOMA, Strain/Indicator: L5178Y (TK+/TK-), Metabolic Activation: NONE, Method: SUSPENSION/PLATE): inactive; positive. reevaluation of results: negative
- mutagenic call (Test System: MOUSE LYMPHOMA, Strain/Indicator: L5178Y (TK+/TK-), Metabolic Activation: RAT, LIVER, S-9, AROCLOR 1254, Method: SUSPENSION/PLATE): inactive; negative
